Assay results from a melting point compilation (Tetko et al.; mined from patent text by program, amines drawn as free bases though some values may be those of a salt).

| SMILES | melting point [°C] |
| --- | --- |
| O=C(O)CCCCCc1nn(-c2ccc([N+](=O)[O-])cc2)c2c1CCCC2 | 119 to 121 |
| NC(=O)c1ccc([N+](=O)[O-])c(CN2C(=O)c3ccccc3C2=O)c1 | 100 to 124 |
| Cc1cc(-c2cc(=O)c3ccccc3o2)cc(C)c1O | 255 to 256 |
| O=C(O)CCC1(C(=O)O)NCC(=O)N1 (centres undefined) | 202 to 205 |
| O=S1(=O)c2cccc3cccc(c23)N1CCCN1CC=C(c2c[nH]c3ccc(Cl)cc23)CC1 | 189 |
| CC(C)c1ccc(C2(OC(=O)N(C)C)C(=O)c3ccccc3C2=O)c(O)c1 | 114 to 118 |
| CCCc1c2nc(C(=O)OC)cc(C(F)(F)C(F)(F)C(F)(F)F)c2cc2c(=O)cc(C(=O)OCC)oc12 | 144 to 146 |
| CCOC(=O)c1nc(-c2ccc([N+](=O)[O-])cc2)[nH]c1-c1ccc(N(C)C)cc1 | 240 to 242 |
| CC(C)(C)OC(=O)N1CCCC(O)(C#Cc2cccc(Cl)c2)C1 (centres undefined) | 128 to 129 |
| CCOC(=O)COc1ccccc1C(=O)Nc1ccc(Sc2ccccc2-c2nnn[nH]2)cc1 | 97 to 99 |
| COc1ccc2nc(N3CCNCC3)ccc2c1 | 95 to 97 |
| CC(C)c1ccc(SCc2c(C(C)C)nc(C(C)C)c(CO)c2-c2ccc(F)cc2)cc1 | 108 to 109 |
| COCCNC(=S)n1nc(Oc2ncc(C(F)(F)F)cc2Cl)cc1C | 108 to 109 |
| COCN1C(C)=C(C(=O)OC)C(c2ccccc2)C(C(=O)OCOC(=O)C(C)(C)C)=C1C (single isomer, unassigned; (+)) | 80 to 81 |
| CC1CC(N)=C(C#N)C1C (centres undefined) | 92 to 100 |
| Cc1[nH]c2ccccc2c1CCC(=O)N1CCN(c2ccccc2)CC1 | 120 to 121 |
| Cc1nc(CO)n(C)c1[N+](=O)[O-] | 113 to 114 |
| O=C(NN=Cc1ccnc2ccccc12)c1ccc(Cl)cc1 | 233 |
| COc1ccc(C(=O)c2cccc(Cc3ccc(=O)[nH]n3)c2Cl)cc1 | 192 to 193 |
| CCSc1nc2c(C(=O)OCOC)sc(C)c2[nH]1 | 128 to 130 |
| COC(=O)C1CC(O)CN1C(=O)c1ccc(OC)c(OC)c1 (centres undefined) | 174 |
| CC1(C)C(=O)NC(=O)c2c1ccc(N)c2[N+](=O)[O-] | 259 to 263 |
| Cc1nccn1CCN1CCC(Nc2nc3ccccc3n2Cc2ccc(F)cc2)CC1 | 170 |
| O=C(O)CCC(=O)c1ccc(SCCCBr)cc1 | 91 to 94 |
| COc1ccc(-c2cc(=Nc3c(C)cc(C)cc3C)n(C)c(=NCc3ccccc3)n2C)cc1OC | 97 to 100 |

| SMILES | melting point [°C] |
| --- | --- |
| Cc1cc(C)c2c(c1O)C(=O)C1CCCCC21 (centres undefined) | 64 to 65 |
| CC1CCN(C(=O)Oc2ccccc2-c2ccccc2)CC1 | 85 to 86 |
| COc1cc(C(=O)C=Cc2cc(-c3cccs3)ccc2OC)ccc1O | 142 to 144 |
| CCCCCCc1cc(-c2cccs2)n[nH]1 | 53 to 55 |
| C=CS(=O)(=O)c1ccc(NC(C)=O)cc1 | 122 |
| O=C(Nc1ccc(-n2nc(C(F)(F)F)cc2C(F)(F)F)cc1)c1cccnc1Cl | 145 to 147 |
| Cc1cc(C)c(OC(=O)NC2CC2c2ccc(-c3ncn(-c4ccc(OC(F)(F)F)cc4)n3)cc2)c(C)c1 (centres undefined) | 199 to 202 |
| COc1cc2ncnc(N3c4ccccc4CC3C)c2cc1OC (centres undefined) | 154 to 156 |
| CNc1ccc(Cl)cc1C(=N)c1ccccc1 | 93 to 95 |
| CSc1nn2c(N3CCN(C)CC3)cc(Cl)nc2c1S(=O)(=O)c1ccccc1 | > 230 |
| O=[N+]([O-])c1cc(C(O)CCN2CC=C(c3ccc(Cl)cc3)CC2)ccc1F (centres undefined) | 154 to 156 |
| O=C(O)c1cc(S(=O)(=O)Oc2ccccc2-c2ccc(-c3c(Cc4ccccc4)oc4ccccc34)cc2)ccc1O | 171 to 173 |
| COc1cc2c(c(Cl)c1Cl)C(=O)C(CCCl)C2 (centres undefined) | 103 to 105 |
| C/C(=C\c1ccc(OC(C)C)cc1Oc1ncc(C(F)(F)F)cc1Cl)C(=O)NS(=O)(=O)NCCc1cccs1 | 130 to 131 |
| CC(C)(C)C(=O)Nc1c(F)cc(F)cc1Oc1ccc(C2(C#N)CCCC2)cc1 | 103 to 105 |
| O=C1Nc2ccccc2C1=C(c1ccc(Cl)cc1)c1ccc(Cl)cc1 | 206 to 208 |
| CC12CCC(OC(=O)COc3ccccc3)CC1=CCC1C2CCC2(C)C(=NO)CCC12 (centres undefined) | 118 to 122 |
| N#CCc1c(C(F)(F)F)cccc1C(F)(F)F | 84.5 to 86 |
| CC(=O)OC1CSC(Oc2cccc(-c3cccc(Cl)n3)c2)C(OC(C)=O)C1OC(C)=O (centres undefined) | 186 to 189 |
| CC(Br)c1ccc(-c2onc3ccccc23)cc1 (centres undefined) | 106 to 108 |
| CCCC(NS(=O)(=O)c1ccc(Cl)cc1)C(=O)NN (centres undefined) | 120 |
| Cc1ncc(OC(=O)C2(C3CCCCC3)CCCCC2)cn1 | 52 to 55 |
| CC(=O)Oc1cc(S(=O)(=O)Oc2ccc(C(=O)c3c(Cc4ccc(Br)cc4)sc(C)c3C)cc2C2CCCC2)ccc1C(=O)O | 113 to 114 |
| O=c1oc2ccc(-c3ccc(F)cc3F)cc2c(=O)n1-c1ccc(F)cc1F | 155 to 156 |
